Consider 37 compounds from US9850227B2 (YUHAN CORPORATION, priority 2011, dated 2017).

Counter-ions that a name gives are not always drawn.

The target of the assay is T1, human 5-HT4(a) (Homo sapiens, UniProt Q13639).
T1 construct: host or cells: GeneBIAzer HTR4-CRE-bla CHO-K1 cells
T1 sequence (Q13639 1-387 isoform Q13639-2): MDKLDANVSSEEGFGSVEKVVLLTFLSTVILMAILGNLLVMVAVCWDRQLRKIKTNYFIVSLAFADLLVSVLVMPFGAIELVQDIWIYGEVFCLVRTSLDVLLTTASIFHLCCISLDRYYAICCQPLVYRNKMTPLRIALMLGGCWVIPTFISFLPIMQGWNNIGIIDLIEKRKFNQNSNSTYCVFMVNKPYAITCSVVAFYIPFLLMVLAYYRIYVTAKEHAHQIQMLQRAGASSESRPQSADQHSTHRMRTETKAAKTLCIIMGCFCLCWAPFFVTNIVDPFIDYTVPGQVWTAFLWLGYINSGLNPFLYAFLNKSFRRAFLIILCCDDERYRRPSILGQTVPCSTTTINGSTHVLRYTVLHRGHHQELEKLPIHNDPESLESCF
The assay can be described thus: Evaluation of agonistic activity in CHO-K1 cells expressing human 5-HT4(a) (GeneBIAzer HTR4-CRE-bla CHO-K1 cells, beta-lactamase fluorescence ratio, EC50 from 8 concentrations). In kind it is cell-based. Summed up: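 HTR4-CRE-bla CHO-K1 cells (10^4 per well, overnight in 1% FBS medium) exposed to compound for 5 h, then beta-lactamase substrate 2 h in the dark. Fluorescence ratio at 465/535 nm after 410 nm excitation; EC50 by non-linear regression over 8 concentrations.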
As usually defined, the EC50 is the concentration giving half of the maximal effect. For the compound `CCCCc1cc(N2CCC[C@@H](N)C2)nc(Nc2ccc(C)c(C(F)(F)F)c2)n1` [Example 343, (R)-4-(3-aminopiperidin-1-yl)-6-butyl-N-[4-methyl-3-(trifluoromethyl)phenyl]pyrimidin-2-amine], the EC50 turned out to be 0.034 nM.

In the case of `CCCc1cc(N2CCC[C@H](NCCCSC)C2)nc(Nc2ccc(C)c(C#N)c2)n1` [Example 162, (S)-2-methyl-5-{4-[3-(3-methylthiopropylamino)piperidin-1-yl]-6-propylpyrimidin-2-ylamino}benzonitrile], the concentration giving a half-maximal response (EC50) worked out at 0.043 nM.

For `CCCc1cc(N2CCC[C@@H](N)C2)nc(Nc2ccc(N)c([N+](=O)[O-])c2)n1` [Example 266, (R)—N^1-[4-(3-aminopiperidin-1-yl)-6-propylpyrimidin-2-yl]-3-nitrobenzene-1,4-diamine], the EC50 was 0.0096 nM.

For the compound `CCCc1cc(N2CCCC3CCCCC32)nc(Nc2cccc(OC)c2)n1` (stereo not shown) [Example 191, N-(3-methoxyphenyl)-4-(octahydroquinolin-1(2H)-yl)-6-propylpyrimidin-2-amine], the EC50 was 0.34 nM.

Take `CCCc1cc(N2CCNC[C@H]2C)nc(Nc2ccc3cc[nH]c3c2)n1` [Example 118, (R)-N-[4-(2-methylpiperazin-1-yl)-6-propylpyrimidin-2-yl]-1H-indol-6-amine]: the EC50 is 0.024 nM.

As for `CCCc1cc(N2CCC[C@@H](NC)C2)nc(Nc2cc(N)cc(C(F)(F)F)c2)n1` [Example 284, (R)—N^1-[4-(3-methylaminopiperidin-1-yl)-6-propylpyrimidin-2-yl]-5-(trifluoromethyl)benzene-1,3-diamine], the EC50 was determined as 0.0032 nM.

Turning to `CCCc1cc(N2CCCCC2CC)nc(Nc2ccc(F)c([N+](=O)[O-])c2)n1` (stereo not shown) [Example 100, 4-(2-ethylpiperidin-1-yl)-N-(4-fluoro-3-nitrophenyl)-6-propylpyrimidin-2-amine], the EC50 was found to be 0.2 nM.

As for `CCCc1cc(N2CCC[C@H](NCC3CC3)C2)nc(Nc2ccc(C)c(C#N)c2)n1` [Example 163, (S)-5-{4-[3-(cyclopropylmethylamino)piperidin-1-yl]-6-propylpyrimidin-2-ylamino}-2-methylbenzonitrile], the EC50 amounted to 0.088 nM.

In the case of `CCCc1cc(N2CCC[C@@H](NC)C2)nc(Nc2ccc(Cl)c(N)c2)n1` [Example 307, (R)-4-chloro-N^1-{4-[3-(methylamino)piperidin-1-yl]-6-propylpyrimidin-2-yl}benzene-1,3-diamine], the EC50 stood at 0.004 nM.

Regarding `CCCc1cc(N2CCC[C@@H](NC)C2)nc(Nc2ccc(C)c(C(F)(F)F)c2)n1` [Example 324, (R)—N-[4-methyl-3-(trifluoromethyl)phenyl]-4-[3-(methylamino)piperidin-1-yl]-6-propylpyrimidin-2-amine], the EC50 is 0.0087 nM.

Turning to `CCCCc1cc(N2CCCCC2CCO)nc(Nc2ccc(F)cc2)n1` (stereo not shown) [Example 22, 2-{1-[6-butyl-2-(4-fluorophenylamino)pyrimidin-4-yl]piperidin-2-yl}ethanol], the concentration for a half-maximal effect (EC50) stood at 0.19 nM.

For `CCCc1cc(N2CCC[C@@H](N(CC)CC)C2)nc(Nc2ccc(C)c(C#N)c2)n1` [Example 269, (R)-5-[4-(3-diethylaminopiperidin-1-yl)-6-propylpyrimidin-2-ylamino]-2-methylbenzonitrile], the EC50 is 0.016 nM.

For the compound `CCCCc1cc(N2CCC[C@@H](NC)C2)nc(Nc2ccc(F)c(C#N)c2)n1` [Example 312, (R)-5-({4-butyl-6-[3-(methylamino)piperidin-1-yl]pyrimidin-2-yl}amino)-2-fluorobenzonitrile], the EC50 is 0.014 nM.

Take `CCCc1cc(N2CCC[C@@H](NC)C2)nc(Nc2cc(N)cc(C#N)c2)n1` [Example 286, (R)-3-amino-5-[4-(3-methylaminopiperidin-1-yl)-6-propylpyrimidin-2-ylamino]benzonitrile]: the EC50 was determined as 0.0044 nM.

In the case of `CCCc1cc(N2CCNC[C@H]2C)nc(Nc2ccc(Cl)c([N+](=O)[O-])c2)n1` [Example 117, (R)-N-(4-chloro-3-nitrophenyl)-4-(2-methylpiperazin-1-yl)-6-propylpyrimidin-2-amine], the EC50 was 0.077 nM.

On to `CCCc1cc(N2CCC[C@@H](NC(C)=O)C2)nc(Nc2ccc(N)c(C(F)(F)F)c2)n1` [Example 279, (R)—N-(1-{2-[4-amino-3-(trifluoromethyl)phenylamino]-6-propylpyrimidin-4-yl}piperidin-3-yl)acetamide], for which the EC50 was 0.014 nM.

`CCCCN[C@@H]1CCCN(c2cc(CCCC)nc(Nc3ccc(C)c(C#N)c3)n2)C1` [Example 300, (R)-5-({4-butyl-6-[3-(butylamino)piperidin-1-yl]pyrimidin-2-yl}amino)-2-methylbenzonitrile]: the EC50 turned out to be 0.0097 nM.

`CCCCc1cc(N2CCC[C@@H](NC)C2)nc(Nc2ccc(N)c(C(F)(F)F)c2)n1` [Example 314, (R)—N^1-{4-butyl-6-[3-(methylamino)piperidin-1-yl]pyrimidin-2-yl}-3-(trifluoromethyl)benzene-1,4-diamine]: the EC50 was found to be 0.0019 nM.

On to `CCCc1cc(N2CCC[C@@H](NC)C2)nc(Nc2ccc(C)c(OC)c2)n1` [Example 309, (R)—N-(3-methoxy-4-methylphenyl)-4-[3-(methylamino)piperidin-1-yl]-6-propylpyrimidin-2-amine], for which the EC50 came to 0.011 nM.

Regarding `CCCc1cc(N2CCNC[C@H]2C)nc(Nc2ccc(F)c(C#N)c2)n1` [Example 125, (R)-2-fluoro-5-[4-(2-methylpiperazin-1-yl)-6-propylpyrimidin-2-ylamino]benzonitrile], the EC50 was 0.051 nM.

For `CCCc1cc(N2CCOCC2)nc(Nc2ccc(F)c([N+](=O)[O-])c2)n1` [Example 84, N-(4-fluoro-3-nitrophenyl)-4-morpholino-6-propylpyrimidin-2-amine hydrochloride], the EC50 stood at 0.27 nM.

With `CCCCc1cc(N2CCC[C@@H](N)C2)nc(Nc2ccc(N)cc2)n1` [Example 352, (R)—N^1-[4-(3-aminopiperidin-1-yl)-6-butylpyrimidin-2-yl]benzene-1,4-diamine], the EC50 stood at 0.029 nM.

For `CCCCc1cc(N2CCC[C@@H](NCC(C)(C)C)C2)nc(Nc2ccc(C)c(C#N)c2)n1` [Example 304, (R)-5-({4-butyl-6-[3-(neopentylamino)piperidin-1-yl]pyrimidin-2-yl}amino)-2-methylbenzonitrile], the EC50 was found to be 0.049 nM.

`CCCc1cc(N2CCC[C@H](N)C2)nc(Nc2ccc(C)c(C#N)c2)n1` [Example 150, (S)-5-[4-(3-aminopiperidin-1-yl)-6-propylpyrimidin-2-ylamino]-2-methylbenzonitrile dihydrochloride]: the half-maximal effective concentration (EC50) stood at 0.07 nM.

With `CCCCc1cc(N2CCC[C@@H](NC(C)=O)C2)nc(Nc2ccc(F)c(N)c2)n1` [Example 241, (R)—N-{1-[2-(3-amino-4-fluorophenylamino)-6-butylpyrimidin-4-yl]piperidin-3-yl}acetamide], the EC50 amounted to 0.014 nM.

Turning to `CCCc1cc(N2CCC[C@@H](NC(C)=O)C2)nc(Nc2cccc(C#N)c2)n1` [Example 273, (R)—N-{1-[2-(3-cyanophenylamino)-6-propylpyrimidin-4-yl]piperidin-3-yl}acetamide], the 50% effective concentration (EC50) was 0.046 nM.

For the compound `CCCc1cc(N2CCC[C@@H](NCC3CC3)C2)nc(Nc2cccc(C#N)c2)n1` [Example 224, (R)-3-{4-[3-(cyclopropylmethylamino)piperidin-1-yl]-6-propylpyrimidin-2-ylamino}benzonitrile], the EC50 stood at 0.07 nM.

As to `CCCc1cc(N2CCC[C@@H](NC)C2)nc(Nc2ccc(C)c(C#N)c2)n1` [Example 283, (R)-2-methyl-5-[4-(3-methylaminopiperidin-1-yl)-6-propylpyrimidin-2-ylamino]benzonitrile], the concentration giving a half-maximal response (EC50) is 0.0084 nM.

As for `CCCc1cc(N2CCCCC2CCO)nc(Nc2ccc(F)c(N)c2)n1` (stereo not shown) [Example 181, 2-{1-[2-(3-amino-4-fluorophenylamino)-6-propylpyrimidin-4-yl]piperidin-2-yl}ethanol], the EC50 is 0.025 nM.

On to `CCCCc1cc(N2CCC[C@@H](NC(C)=O)C2)nc(Nc2ccc(C)c(C#N)c2)n1` [Example 295, (R)—N-{1-[6-butyl-2-(3-cyano-4-methylphenylamino)pyrimidin-4-yl]piperidin-3-yl}acetamide], for which the EC50 stood at 0.0086 nM.

As for `CCCc1cc(N2CCC[C@@H](NCC)C2)nc(Nc2ccc(N)c([N+](=O)[O-])c2)n1` [Example 288, (R)—N^1-[4-(3-ethylaminopiperidin-1-yl)-6-propylpyrimidin-2-yl]-3-nitrobenzene-1,4-diamine], the EC50 was 0.0046 nM.

As for `CCCc1cc(N2CCCCC2CC)nc(Nc2cccc(OC)c2)n1` (stereo not shown) [Example 102, 4-(2-ethylpiperidin-1-yl)-N-(3-methoxyphenyl)-6-propylpyrimidin-2-amine], the EC50 worked out at 0.47 nM.

With `CCCc1cc(N2CCNC[C@H]2C)nc(Nc2ccc(N)c([N+](=O)[O-])c2)n1` [Example 128, (R)-N^1-[4-(2-methylpiperazin-1-yl)-6-propylpyrimidin-2-yl]-3-nitrobenzene-1,4-diamine], the concentration giving a half-maximal response (EC50) came to 0.0049 nM.

Take `CCCc1cc(N2CCNC[C@H]2C)nc(Nc2ccc(C)c([N+](=O)[O-])c2)n1` [Example 122, (R)-N-(4-methyl-3-nitrophenyl)-4-(2-methylpiperazin-1-yl)-6-propylpyrimidin-2-amine]: the EC50 stood at 0.011 nM.

Take `CCCc1cc(N2CCC[C@@H](NC)C2)nc(Nc2ccc(F)c(N)c2)n1` [Example 306, (R)-4-fluoro-N^1-{4-[3-(methylamino)piperidin-1-yl]-6-propylpyrimidin-2-yl}benzene-1,3-diamine]: the EC50 is 0.015 nM.

With `CCCc1cc(N2CCC[C@H](NCC(C)C)C2)nc(Nc2ccc(C)c(C#N)c2)n1` [Example 156, (S)-5-{4-[3-(isobutylamino)piperidin-1-yl]-6-propylpyrimidin-2-ylamino}-2-methylbenzonitrile], the 50% effective concentration (EC50) came to 0.066 nM.

As for `CCCCc1cc(N2CCC[C@@H](NC)C2)nc(Nc2ccc(C)c(C(F)(F)F)c2)n1` [Example 332, (R)-4-butyl-N-[4-methyl-3-(trifluoromethyl)phenyl]-6-[3-(methylamino)piperidin-1-yl]pyrimidin-2-amine], the EC50 came to 0.017 nM.
